Data reported in patent publication US4618612A (Medosan Industrie Biochimiche Riunite S.p.A., priority 1983, dated 1986).

Legend:
carragenin-induced edema = assay: Carragenin-induced edema test (Winter); type: in vivo, rat
Method: This effect was measured with an experimental model reproducing acute inflammation in rats: the carragenin-induced edema test according to C.

in vivo [1] = conditions: mouse, mice
Solubility = type: physicochemical; conditions: common organic solvents
gastric mucosa = assay: Gastric tolerance (ulcerogenic activity); type: in vivo, male Wistar rats; conditions: 4 days; for Mean Severity: scale 0-5; for Gastric Damage index: vehicle 8
Method: This was studied by conducting tests of ulcerogenic activity in male Wistar rats, weighing 180 g on the average, in groups of 10 animals each. Three doses of each substance were given, and one group of animals was treated with vehicle only in a volume of 10 ml/kg bodyweight. Each dose was given orally for four consecutive days; on the fifth day, the rats were killed and autopsied. The ulcerogenic effect was assessed according to the following scale:
(1) each hemorrhage point ≥1 mm was evaluated as 1 lesion
(2) hemorrhage points smaller than 1 mm were counted as follows:
(b) from 1 to 19:2 lesions
(c) from 1 to 29:3 lesions
(2) gastric mucosa irritation: 1
(3) hemorrahge points <1 mm: 2
(4) hemorrhage points between 1 and 3 mm: 3
(5) hemorrhage points >3 mm: 4
This scale was used to calculate the following gastric damage index: [formula]

[2] = test system: rat platelet-rich plasma (ADP-induced platelet aggregation); assay: Anti-platelet aggregation activity in vitro (Born's method), rat platelet-rich plasma, ADP-induced; type: cell-based
Method: Preparations (A), (B), (C), (D), (E) and (F) were administered "in vivo" orally and/or parenterally in 0.5% carboxymethylcellulose suspensions in physiological saline at neutral pH. When tested "in vitro", they were finely dispersed in neutral pH physiological saline.
This was studied "in vitro" following Born's method (Born G. W. R., Nature, 194, 937 (1962)) and inducing platelet aggregation with ADP.
Platelet-rich plasma was obtained by centrifugation for 10 minutes at 2,000 rpm of 9 parts rat blood to 1 part 3.13% sodium citrate solution. In performing the aggregation test, 0.2 ml of platelet rich plasm was mixed with a 0.9% NaCl solution to which the test substance was added to a final volume of 0.6 ml; the resulting mixture was incubated at 27° C. for 3 minutes. After inducement with ADP, aggregation was measured continuously with an Elvi 840 Aggregometer (Elvi Logos-Milan) to follow its course. The anti-aggregant effects were determined from the difference in the light transmission of the sample with respect to an ADP control.
Table I reports the platelet aggregation inhibition using different doses of the test compounds at a constant ADP concentration.

in vivo [3] = conditions: rat, rats
[4] = ADP 2 μmol/l, dose 1 V/ml (Table II)
[5] = ADP 5 μmol/l, dose 1 V/ml (Table II)

Cc1cc(CC(=O)OCCn2cnc3c2c(=O)n(C)c(=O)n3C)n(C)c1C(=O)c1ccc(Cl)cc1 [(B), 1,4-Dimethyl-5-p-chlorobenzoylpyrrol-2-acetate of 7-(2-oxyethyl)theophylline]
% Edema Inhibition (carragenin-induced edema; I.P., 5 mg/kg, 3 h): 65,2% | % Edema Inhibition (carragenin-induced edema; I.P., 5 mg/kg, 6 h): 60,5% | % Edema Inhibition (carragenin-induced edema; I.P., 5 mg/kg, 24 h): 10,5% | % Edema Inhibition (carragenin-induced edema; I.P., 10 mg/kg, 3 h): 70,6% | % Edema Inhibition (carragenin-induced edema; I.P., 10 mg/kg, 6 h): 71,3% | % Edema Inhibition (carragenin-induced edema; I.P., 10 mg/kg, 24 h): 15,0% | % Edema Inhibition (carragenin-induced edema; I.P., 2,5 mg/kg, 3 h): 52,0% | % Edema Inhibition (carragenin-induced edema; I.P., 2,5 mg/kg, 6 h): 50,0% | % Edema Inhibition (carragenin-induced edema; I.P., 2,5 mg/kg, 24 h): 5,1% | % Edema Inhibition (carragenin-induced edema; OS, 5 mg/kg, 3 h): 66,0% | % Edema Inhibition (carragenin-induced edema; OS, 5 mg/kg, 6 h): 60,0% | % Edema Inhibition (carragenin-induced edema; OS, 5 mg/kg, 24 h): 12,0% | % Edema Inhibition (carragenin-induced edema; OS, 10 mg/kg, 3 h): 73,0% | % Edema Inhibition (carragenin-induced edema; OS, 10 mg/kg, 6 h): 70,3% | % Edema Inhibition (carragenin-induced edema; OS, 10 mg/kg, 24 h): 20,0% | % Edema Inhibition (carragenin-induced edema; OS, 2,5 mg/kg, 3 h): 56,4% | % Edema Inhibition (carragenin-induced edema; OS, 2,5 mg/kg, 6 h): 53,0% | % Edema Inhibition (carragenin-induced edema; OS, 2,5 mg/kg, 24 h): 10,0% | LD50 (in vivo [1]; ip, I.P.): 140 mg/kg | LD50 (in vivo [1]; po, OS): 160 mg/kg | Solubility (Solubility): Soluble in common organic solvents | % incidence 10 (gastric mucosa; 5 mg/kg oral): 8 %/10 | Gastric Damage index, second figure (after +; difference from vehicle) (gastric mucosa; 5 mg/kg oral): 5 | Mean No. lesions (gastric mucosa; 5 mg/kg oral): 2,5 | Mean Severity (gastric mucosa; 5 mg/kg oral): 2,5 | Gastric Damage index (gastric mucosa; 5 mg/kg oral): 13 | % incidence 10 (gastric mucosa; 10 mg/kg oral): 9 %/10 | Gastric Damage index, second figure (after +; difference from vehicle) (gastric mucosa; 10 mg/kg oral): 8 | Mean No. lesions (gastric mucosa; 10 mg/kg oral): 3 | Mean Severity (gastric mucosa; 10 mg/kg oral): 4 | Gastric Damage index (gastric mucosa; 10 mg/kg oral): 16 | % incidence 10 (gastric mucosa; 2,5 mg/kg oral): 7 %/10 | Gastric Damage index, second figure (after +; difference from vehicle) (gastric mucosa; 2,5 mg/kg oral): 2 | Mean No. lesions (gastric mucosa; 2,5 mg/kg oral): 1 | Mean Severity (gastric mucosa; 2,5 mg/kg oral): 2 | Gastric Damage index (gastric mucosa; 2,5 mg/kg oral): 10 | % Inhibition [2, 4]: 31% | % Inhibition [2, 5]: 25% | % Inhibition ([2]; ADP 7.08 μmol/l, dose 1 /ml (Table I)): 20% | % Inhibition ([2]; ADP 7.08 μmol/l, dose 2,5 /ml (Table I)): 70% | % Inhibition ([2]; ADP 7.08 μmol/l, dose 5 /ml (Table I)): 90% | LD50 (in vivo [3]; ip, I.P.): 100 mg/kg | LD50 (in vivo [3]; po, OS): 150 mg/kg

Cc1ccc(C(=O)c2ccc(CC(=O)OC(Cn3cnc4c3c(=O)n(C)c(=O)n4C)Cn3cnc4c3c(=O)n(C)c(=O)n4C)n2C)cc1 [(F)]
% Edema Inhibition (carragenin-induced edema; I.P., 10 mg/kg, 3 h): 43,8% | % Edema Inhibition (carragenin-induced edema; I.P., 10 mg/kg, 6 h): 34,8% | % Edema Inhibition (carragenin-induced edema; I.P., 10 mg/kg, 24 h): 0,0% | % Edema Inhibition (carragenin-induced edema; I.P., 50 mg/kg, 3 h): 56,0% | % Edema Inhibition (carragenin-induced edema; I.P., 50 mg/kg, 6 h): 33,0% | % Edema Inhibition (carragenin-induced edema; I.P., 50 mg/kg, 24 h): 0,0% | % Edema Inhibition (carragenin-induced edema; I.P., 100 mg/kg, 3 h): 78,6% | % Edema Inhibition (carragenin-induced edema; I.P., 100 mg/kg, 6 h): 65,6% | % Edema Inhibition (carragenin-induced edema; I.P., 100 mg/kg, 24 h): 15,8% | % Edema Inhibition (carragenin-induced edema; OS, 10 mg/kg, 3 h): 23,9% | % Edema Inhibition (carragenin-induced edema; OS, 10 mg/kg, 6 h): 24,0% | % Edema Inhibition (carragenin-induced edema; OS, 10 mg/kg, 24 h): 0,0% | % Edema Inhibition (carragenin-induced edema; OS, 50 mg/kg, 3 h): 47,0% | % Edema Inhibition (carragenin-induced edema; OS, 50 mg/kg, 6 h): 46,0% | % Edema Inhibition (carragenin-induced edema; OS, 50 mg/kg, 24 h): 0,0% | % Edema Inhibition (carragenin-induced edema; OS, 100 mg/kg, 3 h): 66,0% | % Edema Inhibition (carragenin-induced edema; OS, 100 mg/kg, 6 h): 66,0% | % Edema Inhibition (carragenin-induced edema; OS, 100 mg/kg, 24 h): 12,0% | LD50 (in vivo [1]; ip, I.P.): 1240 mg/kg | LD50 (in vivo [1]; po, OS): 1680 mg/kg | % Inhibition [2, 4]: 32% | % Inhibition [2, 5]: 23% | LD50 (in vivo [3]; ip, I.P.): 1050 mg/kg | LD50 (in vivo [3]; po, OS): 1500 mg/kg
